In one assay the test system is H3K9ac. In words: H3K9ac level in wild-type, SIRT1 null and Lmna null cells (immunoblot, immunofluorescence). It counts as cell-based. As for the experimental part: Western blotting was performed as described previously (Liu et al., 2005). Relative band intensity was measured by IMAGE J® and normalized to corresponding wild-type or untreated controls as indicated.
In addition to acetyl p53, H3K9ac is another substrate of SIRT1 deacetylase (Wang et al., 2008). This Example further investigates the effects of resveratrol on H3K9ac in the wild-type, SIRT1^−/− or Lmna null cells. […] Anti-H3K9ac immunofluorescence staining further confirmed the lamin A-dependent activation of SIRT1 by resveratrol (FIG. 3G).
(In general: Immunoblotting shows a protein as a band on a membrane.)

Assay [1] addresses T1, SIRT1 binding to prelamin A (Mus musculus, UniProt Q923E4).
T1 construct: endogenous in cells; host or cells: mouse bone marrow stromal cells (Zmpste24-/-)
T1 sequence (Q923E4 2-737 limits assumed): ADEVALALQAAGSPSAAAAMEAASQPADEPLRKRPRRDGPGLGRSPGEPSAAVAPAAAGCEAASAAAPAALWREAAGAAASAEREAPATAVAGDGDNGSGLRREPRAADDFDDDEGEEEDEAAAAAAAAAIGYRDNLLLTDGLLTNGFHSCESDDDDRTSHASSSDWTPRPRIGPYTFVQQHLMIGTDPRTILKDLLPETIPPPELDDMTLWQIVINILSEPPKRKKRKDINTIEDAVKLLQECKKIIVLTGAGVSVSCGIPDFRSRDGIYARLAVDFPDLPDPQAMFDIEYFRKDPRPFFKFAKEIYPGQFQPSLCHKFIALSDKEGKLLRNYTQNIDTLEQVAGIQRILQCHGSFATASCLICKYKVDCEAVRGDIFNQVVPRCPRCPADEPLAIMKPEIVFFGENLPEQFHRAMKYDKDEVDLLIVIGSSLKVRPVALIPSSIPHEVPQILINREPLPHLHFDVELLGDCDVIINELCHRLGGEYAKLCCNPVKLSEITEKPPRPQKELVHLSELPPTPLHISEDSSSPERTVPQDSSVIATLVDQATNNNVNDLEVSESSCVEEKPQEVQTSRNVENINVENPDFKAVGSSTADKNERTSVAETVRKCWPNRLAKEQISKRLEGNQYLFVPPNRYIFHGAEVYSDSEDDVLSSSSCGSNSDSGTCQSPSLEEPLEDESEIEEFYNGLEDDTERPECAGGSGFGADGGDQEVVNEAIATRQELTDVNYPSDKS
T1 sequence (P48678 1-662 partner limits assumed): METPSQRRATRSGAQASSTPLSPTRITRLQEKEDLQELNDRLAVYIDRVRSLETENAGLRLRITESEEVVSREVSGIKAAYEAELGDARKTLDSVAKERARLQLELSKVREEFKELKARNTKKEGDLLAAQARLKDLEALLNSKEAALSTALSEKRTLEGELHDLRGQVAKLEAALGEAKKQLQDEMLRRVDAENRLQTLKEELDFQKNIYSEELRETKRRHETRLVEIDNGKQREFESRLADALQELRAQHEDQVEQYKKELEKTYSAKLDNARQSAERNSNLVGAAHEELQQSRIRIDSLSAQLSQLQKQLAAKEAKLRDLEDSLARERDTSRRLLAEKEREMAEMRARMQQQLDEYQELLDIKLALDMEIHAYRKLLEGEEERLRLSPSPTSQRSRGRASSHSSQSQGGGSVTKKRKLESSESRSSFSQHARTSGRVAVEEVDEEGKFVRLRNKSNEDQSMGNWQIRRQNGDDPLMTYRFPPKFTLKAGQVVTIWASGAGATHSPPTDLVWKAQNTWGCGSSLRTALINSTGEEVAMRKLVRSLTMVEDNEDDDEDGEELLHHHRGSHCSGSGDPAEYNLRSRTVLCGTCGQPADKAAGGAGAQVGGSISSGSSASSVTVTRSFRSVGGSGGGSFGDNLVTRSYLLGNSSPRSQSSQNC
In words: Prelamin A pull-down by anti-SIRT1 immunoprecipitates in BMSCs. It counts as cell-based. The following applies: resveratrol 2 μM. As for the experimental part: (FIG. 4A) Resveratrol (10 μM) increased colony-forming capacity of Zmpste24^−/− BMSCs. Colony-forming assay was performed on freshly isolated bone marrow cells in 10 cm dishes in the presence and absence of resveratrol. (FIG. 4B) Colony number counting. […] Data represent mean±SEM, n=4. *P<0.05, RSV Vs Vehicle. (FIG. 4C) Left, level of prelamin A pull down by anti SIRT1 immunoprecipitates in BMSCs treated or untreated with resveratrol (2 μM) was determined by Immunoblotting; right, level of acetylated Foxo3a in resveratrol was assessed by Immunoblotting. (FIG. 4D) Levels of catalase and Gadd45α in SIRT1 or scramble siRNA treated Zmpste24^−/− BMSCs in the presence or absence of resveratrol (10 μM) determined by Western blotting. (FIG. 4E) Colony-forming capacity of Zmpste24^−/− BMSCs by SIRT1 or scramble knocking down in the presence or absence of resveratrol. […] Colony forming assay was done on freshly isolated cells in 6-well plates. (FIG. 4F) Quantification of (FIG. 4E). […] (FIG. 4gG Levels of H3K9ac and IR-induced-H2AX with or without ectopic SIRT1 in wild-type and Zmpste24 null BMSCs were assessed by Western blotting. (FIG. 4H) Ectopic SIRT1 increased the colony-forming capacity of Zmpste24^−/− and wild-type BMSCs. Colony-forming assay was performed on freshly isolated cells in 6 cm dishes. (FIG. 4I) Quantification of (FIG. 4H). Data represent mean±SEM, n=5. *P<0.05, SIRT1 Vs Mock. […]

As to `Oc1ccc(C=Cc2cc(O)cc(O)c2)cc1` [resveratrol], the “effect on level of H3K9ac” value in the assay with H3K9ac (Lmna−/− cells) and in the assay on H3K9ac (SIRT1−/− cells) was “completely abrogated” each time. Moreover, the “level of H3K9ac” value with H3K9ac (wild-type cells) was “downregulated”. In assay [1], the “binding of SIRT1 to prelamin A” value is recorded as “increased the binding of SIRT1 to prelamin A”.
